In US10239875B2, “Naphthyridinyl hydrazine derivatives as potent peripheral analgesic agents” (KING SAUD UNIVERSITY, priority 2017, dated 2019):

Tested on: Albino mice
Assay: mouse writhing test (acetic acid-induced), peripheral analgesic activity
Format: in vivo
Details: for No. of writhes/20 min: 30 min before i.p. acetic acid 0.7% 10 mL/kg, mean ± S.E.; for Protection (%) / analgesic activity compared with acetylsalicylic acid / placebo control (in words): writhing test; for Protection (%): versus placebo control mean; for analgesic activity compared with acetylsalicylic acid / placebo control (in words): 20 mg/kg orally vs acetylsalicylic acid 150 mg/kg, Dunnett's test P < 0.05
Experimental: The test compounds synthesized in Examples 2-11 were tested for analgesic activity as follows. Albino mice of both sexes (27-30 g body weight each) were used in the experiments. Mice used in this experiment were obtained from the Animal House Colony at the National Research Centre (NRC), Egypt. All animals were housed under standard conditions of natural 12-hour light and dark cycles with free access to food and water. Animals were allowed to adapt to the laboratory environment for one week before use in experimentation. All animal procedures were first approved by the Ethics Committee of the NRC, Egypt, and were performed in accordance with standard recommendations and guidelines for proper care and use of laboratory animals.
The peripheral analgesic activities of compounds 1 to 10 were determined in mice using the standard writhing test. Seventy-two mice were divided into 12 groups of 6 mice. Mice of the first (placebo control) and last (active control) groups were treated orally (p.o.) with the vehicle (5 mL/kg) or acetyl salicylic acid (150 mg/kg), respectively. Animals of the second to eleventh groups were orally given one of the selected compounds at doses of 20 mg/kg. Once 30 minutes passed after administration of medication, each mouse received an intraperitoneal injection of acetic acid (0.7% aqueous solution) in a dose of 10 mL/kg to induce writhing. The mice were then placed in transparent boxes, and the number of writhes per animal was counted for 20 minutes after acetic acid injection. The “protection %” was calculated using the following equation: Protection (%)=[Control mean−Treated mean/Control mean]×100.

[1] = acetylsalicylic acid 150 mg/kg orally in DW
[2] = test compound 20 mg/kg orally in DMSO

CC(=O)Oc1ccccc1C(=O)O [Acetylsalicylic acid, acetylsalicylic acid, reference compound]
No. of writhes/20 min [1]: 17.4 ± 1.57 writhes/20 min | Protection (%) [1]: 78.47%

Cc1ccc2c(NN=Cc3ccc(N4CCCCC4)cc3)cc(C)nc2n1 [Compound 3]
No. of writhes/20 min [2]: 36.2 ± 2.58 writhes/20 min | Protection (%) [2]: 55.20%

CC(=NNc1cc(C)nc2nc(C)ccc12)c1ccc(N2CCOCC2)cc1 [Compound 5]
No. of writhes/20 min [2]: 29.2 ± 2.50 writhes/20 min | Protection (%) [2]: 63.86%

Cc1ccc2c(NN=Cc3ccc(N4CCOCC4)cc3)cc(C)nc2n1 [Compound 1]
No. of writhes/20 min [2]: 24.8 ± 1.02 writhes/20 min | Protection (%) [2]: 69.31% | analgesic activity compared with acetylsalicylic acid / placebo control (in words): analgesic activity close to that of acetylsalicylic acid

CC(=NNc1cc(C)nc2nc(C)ccc12)c1ccc(N2CCNCC2)cc1 [Compound 6]
No. of writhes/20 min [2]: 26.2 ± 1.32 writhes/20 min | Protection (%) [2]: 67.57% | analgesic activity compared with acetylsalicylic acid / placebo control (in words): analgesic activity close to that of acetylsalicylic acid

Cc1ccc2c(NN=Cc3ccc(N4CCN(C)CC4)cc3)cc(C)nc2n1 [Compound 4]
No. of writhes/20 min [2]: 44.8 ± 2.85 writhes/20 min | Protection (%) [2]: 44.55%

CC(=NNc1cc(C)nc2nc(C)ccc12)c1ccc(N2CCCCC2)cc1 [Compound 7]
No. of writhes/20 min [2]: 23.6 ± 2.16 writhes/20 min | Protection (%) [2]: 70.79% | analgesic activity compared with acetylsalicylic acid / placebo control (in words): analgesic activity close to that of acetylsalicylic acid

Cc1ccc2c(NN=Cc3ccc(N4CCNCC4)cc3)cc(C)nc2n1 [Compound 2]
No. of writhes/20 min [2]: 39.6 ± 3.14 writhes/20 min | Protection (%) [2]: 50.99%
